Data set [1] concerns the target T1, PLK1 (Homo sapiens, UniProt P53350). Details: method as in ExCAPE-DB [85]. To be noted: known PLK1 ligands carrying the core substructures; ref ExCAPE-DB [85]; cited from earlier work.
The target of data set [2] is T2, PLK2 (Homo sapiens, UniProt Q9NYY3). Briefly: PLK2 ADP-Glo kinase assay (selectivity). The class given is biochemical. To be noted: read-out: IC50 against PLK2. On the procedure:
(§1) In vitro kinase activity assays were conducted through ADP-Glo assay services provided by Conradbio (Conradbio, China). The protocol for the PLK1 assay is described as follows (protocols for other kinases are very similar). Enzyme, substrate, ATP, and compounds were diluted in a Kinase Buffer composed of 40 mM Tris (pH 7.5), 20 mM MgCl2, 0.1 mg/ml BSA, and 50 μM DTT. In a 384-well low-volume plate, 1 μl of the compound or 5% dimethyl sulfoxide (DMSO), 2 μl of PLK1 enzyme (15 ng/well), and 2 μl of substrate/ATP mix (final concentration: 20 μM ATP, 0.2 μg/μl Casein) were added to each well. The plate was then incubated at 25 °C for 60 min to allow for kinase activity. Following the enzymatic reaction, 5 μl of ADP-Glo^TM Reagent was added to each well, and the plate was incubated at 25 °C for an additional 40 min. Subsequently, 10 μl of Kinase Detection Reagent was added, and the plate was incubated for a final 30 min at 25 °C. Luminescence was recorded with an integration time of 0.5 s.
(§2) IC50 values were calculated using Prism 8 by fitting the following equation:4 Y=Bottom+(Top−Bottom)/(1+10^(logIC50−X)×HillSlope), where X is a log of concentration, Y is a response, and top and bottom are the responses of controls. Each assay was repeated at least three times, and we computed the mean and standard deviation for the values.
(In general: ADP-Glo first removes unused ATP, then detects ADP through luciferase.)

Data set [3] addresses T3, PLK3 (Homo sapiens, UniProt Q9H4B4). Briefly: PLK3 ADP-Glo kinase assay (selectivity). The class given is biochemical. The following applies: read-out: IC50 against PLK3. The procedure:
as §1, §2

In a further data set the target is FAK kinase (Homo sapiens, UniProt Q05397). As to the kind of experiment: FAK ADP-Glo kinase assay (selectivity). The class given is biochemical. To be noted: for IC50: ADP-Glo assay, read-out: IC50 against FAK; for selectivity for PLK1 over FAK: FAK IC50 versus PLK1 IC50. On the procedure: as §1, §2
Data set [4] concerns the target T1, PLK1. Briefly: PLK1 kinase ADP-Glo assay (in vitro kinase activity). The class given is biochemical. Details: 2 μl of PLK1 enzyme (15 ng/well). The following applies: for selectivity for PLK1 compared to other Plks (in words): PLK1 vs PLK2/PLK3. On the procedure:
as §1, §2

The subject of the next data set is HCT116 cell line. Briefly: CellTiter-Glo cell viability assay on HCT116. The class given is cell-based, human. On the procedure:
Cell viability assays were conducted through CellTiter-Glo assay services provided by Conradbio (Conradbio, China). The protocol is briefly described as follows. Firstly, when the cell confluence reaches 80%, cells are collected and counted. Subsequently, a cell suspension is diluted, and 80 μl of the suspension is seeded into each well of a 96-well U-bottom plate. The plate is then placed in a 37 °C, 5% CO2 incubator for optimal cell growth. After 24 h of incubation, a 20 μl aliquot of a diluted compound solution is added to specific wells on the plate, 0.5% dimethyl sulfoxide (DMSO) is used as a negative control. Following the compound addition, the plate is returned to the incubator for an additional day. Upon completion of the incubation period, the CellTiter-Glo assay (Promega) is performed according to the manufacturer’s manual. This assay is designed to measure cell viability based on luminescence, providing insights into the impact of the compounds on cellular health. Finally, data calculation is carried out to analyze the results of the CTG assay using Prism 8.
(Cellular ATP, detected with luciferase, serves as a proxy for viable cell number.)

The nature of data set [5]: Preliminary in vivo pharmacokinetic experiments in mice.
Data set [6] deals with T1, PLK1. As to the kind of experiment: In-house enzymatic activity (peer review response). The class given is biochemical. To be noted: Onvansertib vs. Volasertib.
Data set [7] deals with T2, PLK2. As to the kind of experiment: Activity against PLK2 (peer review response). The class given is biochemical.
Data set [8] addresses T3, PLK3. Briefly: Activity against PLK3 (peer review response). To be noted: source not stated. The class given is biochemical.
The mark [9] stands for this setting: ADP-Glo assay, mean ± standard deviation, n = 3 replicates, read-out: IC50 against PLK1.
Setting [10] is: ADP-Glo assay, read-out: IC50 against PLK1 (bound stated in text).
Where [11] appears, read: IC50 with 90% confidence interval, read-out: 90% CI of IC50 against PLK1.
Setting [12] is: IC50 with 95% confidence interval, read-out: 95% CI of IC50 against PLK1.
Setting [13] is: IC50 with 99% confidence interval, read-out: 99% CI of IC50 against PLK1.

Read-outs that look alike come from different tables or passages of the source. Where only a bound is given, the exact number is not on record here.

Sequence of FAK kinase (Q05397 whole entry): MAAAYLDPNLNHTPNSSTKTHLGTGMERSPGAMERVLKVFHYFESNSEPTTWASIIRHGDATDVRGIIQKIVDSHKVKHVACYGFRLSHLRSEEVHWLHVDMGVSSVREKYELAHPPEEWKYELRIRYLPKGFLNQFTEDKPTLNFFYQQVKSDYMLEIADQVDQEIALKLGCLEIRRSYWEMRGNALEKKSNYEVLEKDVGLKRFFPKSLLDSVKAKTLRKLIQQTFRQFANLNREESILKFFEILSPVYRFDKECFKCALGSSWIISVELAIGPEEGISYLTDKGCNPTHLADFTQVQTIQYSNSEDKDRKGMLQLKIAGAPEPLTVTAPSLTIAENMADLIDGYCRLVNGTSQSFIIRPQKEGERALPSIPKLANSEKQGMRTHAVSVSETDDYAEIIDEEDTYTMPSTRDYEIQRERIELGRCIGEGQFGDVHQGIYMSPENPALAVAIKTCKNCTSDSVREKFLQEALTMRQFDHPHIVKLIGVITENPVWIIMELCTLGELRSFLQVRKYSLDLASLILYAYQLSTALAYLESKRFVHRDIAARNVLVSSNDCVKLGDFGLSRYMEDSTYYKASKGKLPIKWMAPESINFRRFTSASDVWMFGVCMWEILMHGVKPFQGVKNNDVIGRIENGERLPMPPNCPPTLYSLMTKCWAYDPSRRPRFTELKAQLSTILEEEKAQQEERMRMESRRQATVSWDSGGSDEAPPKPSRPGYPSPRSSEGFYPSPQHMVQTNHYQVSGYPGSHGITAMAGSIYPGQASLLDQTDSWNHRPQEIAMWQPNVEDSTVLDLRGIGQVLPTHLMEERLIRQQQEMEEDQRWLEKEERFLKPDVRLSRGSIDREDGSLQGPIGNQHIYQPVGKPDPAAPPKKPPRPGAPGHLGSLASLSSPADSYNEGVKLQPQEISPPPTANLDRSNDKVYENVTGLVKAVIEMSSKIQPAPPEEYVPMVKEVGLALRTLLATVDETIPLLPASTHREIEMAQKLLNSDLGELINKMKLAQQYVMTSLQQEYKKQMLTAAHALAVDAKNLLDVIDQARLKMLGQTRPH
T1 sequence (P53350 whole entry): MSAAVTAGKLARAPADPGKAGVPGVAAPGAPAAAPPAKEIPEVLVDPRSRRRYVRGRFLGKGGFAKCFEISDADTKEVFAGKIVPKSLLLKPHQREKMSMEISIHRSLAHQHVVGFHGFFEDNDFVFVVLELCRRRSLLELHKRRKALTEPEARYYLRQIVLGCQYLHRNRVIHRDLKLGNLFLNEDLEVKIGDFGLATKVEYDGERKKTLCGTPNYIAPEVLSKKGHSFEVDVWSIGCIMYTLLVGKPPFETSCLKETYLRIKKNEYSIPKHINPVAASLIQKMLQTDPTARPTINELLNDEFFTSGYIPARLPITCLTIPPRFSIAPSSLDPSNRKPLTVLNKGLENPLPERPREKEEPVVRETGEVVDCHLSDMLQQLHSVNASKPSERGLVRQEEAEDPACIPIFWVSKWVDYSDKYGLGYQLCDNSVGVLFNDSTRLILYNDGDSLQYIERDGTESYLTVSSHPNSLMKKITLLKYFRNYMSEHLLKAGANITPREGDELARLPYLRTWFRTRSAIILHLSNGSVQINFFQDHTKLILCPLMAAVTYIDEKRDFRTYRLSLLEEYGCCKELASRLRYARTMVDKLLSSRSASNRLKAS
T3 sequence (Q9H4B4 whole entry): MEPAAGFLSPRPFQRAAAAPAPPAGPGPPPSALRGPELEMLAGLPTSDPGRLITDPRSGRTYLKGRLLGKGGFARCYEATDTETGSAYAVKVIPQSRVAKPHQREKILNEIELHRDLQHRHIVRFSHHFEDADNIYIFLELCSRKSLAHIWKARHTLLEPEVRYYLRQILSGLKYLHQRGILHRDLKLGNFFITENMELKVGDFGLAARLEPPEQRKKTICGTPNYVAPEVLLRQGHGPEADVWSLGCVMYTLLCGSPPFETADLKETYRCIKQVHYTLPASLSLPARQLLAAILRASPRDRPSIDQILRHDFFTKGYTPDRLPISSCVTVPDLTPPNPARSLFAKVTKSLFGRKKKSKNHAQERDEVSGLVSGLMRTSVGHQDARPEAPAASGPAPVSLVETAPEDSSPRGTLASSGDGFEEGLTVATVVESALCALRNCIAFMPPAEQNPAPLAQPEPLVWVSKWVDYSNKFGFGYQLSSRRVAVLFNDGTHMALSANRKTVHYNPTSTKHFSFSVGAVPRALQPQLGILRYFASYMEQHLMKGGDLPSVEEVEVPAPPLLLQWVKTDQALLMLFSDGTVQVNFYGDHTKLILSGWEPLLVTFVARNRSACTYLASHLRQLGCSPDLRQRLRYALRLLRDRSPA
T2 sequence (Q9NYY3 whole entry): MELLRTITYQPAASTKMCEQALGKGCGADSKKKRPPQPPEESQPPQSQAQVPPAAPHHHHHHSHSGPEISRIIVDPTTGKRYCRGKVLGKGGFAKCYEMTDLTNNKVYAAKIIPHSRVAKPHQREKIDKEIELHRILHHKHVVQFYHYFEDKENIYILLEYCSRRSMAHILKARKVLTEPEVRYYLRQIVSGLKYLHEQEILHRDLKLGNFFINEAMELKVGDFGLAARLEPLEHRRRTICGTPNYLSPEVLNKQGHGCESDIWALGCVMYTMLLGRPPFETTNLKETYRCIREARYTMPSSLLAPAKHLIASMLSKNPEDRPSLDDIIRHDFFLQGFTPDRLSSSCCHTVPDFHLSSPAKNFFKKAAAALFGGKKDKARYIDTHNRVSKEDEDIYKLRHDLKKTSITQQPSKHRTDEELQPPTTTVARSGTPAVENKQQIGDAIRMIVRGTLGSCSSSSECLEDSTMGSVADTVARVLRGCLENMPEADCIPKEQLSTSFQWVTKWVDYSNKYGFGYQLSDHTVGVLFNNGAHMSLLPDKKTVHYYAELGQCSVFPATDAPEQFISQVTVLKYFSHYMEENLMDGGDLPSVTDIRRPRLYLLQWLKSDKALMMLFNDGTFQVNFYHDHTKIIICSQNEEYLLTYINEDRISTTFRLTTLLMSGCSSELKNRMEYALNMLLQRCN

For the compound `COc1cc2c(cc1Nc1nc(Nc3ccsc3C(N)=O)c3cc[nH]c3n1)N(C(=O)CN(C)C)CCC2` [GSK-2110236A], the pXC50 at PLK1 [1] is listed as 7.6.
As for `COc1ccc(N2CCN(C)CC2)cc1Nc1ncc(C(F)(F)F)c(Oc2cccc3[nH]c(C(N)=O)cc23)n1` [IIP0942], the IC50 on PLK2 [2] was more than 1000 nM; on PLK3 [3] it was more than 1000 nM; at FAK kinase, 87.4 nM; at PLK1 [4] (setting [9]), 37.6 nM; at PLK1 [4] (setting [10]), less than 1000 nM; at PLK1 [4] (setting [11]) it was 37.6 ± 3.55 nM. Also, the results for the IC50 on PLK1 [4] (setting [12]) and on PLK1 [4] (setting [13]) were 37.6 ± 4.23 nM and 37.6 ± 5.56 nM, respectively. The “selectivity for PLK1 over FAK” value at FAK kinase is reported as “over two-fold”. Also, the “selectivity for PLK1 compared to other Plks (in words)” value on PLK1 [4] was “excellent”.
As to `COc1ccc(N2CCN(C)CC2)cc1Nc1ncc(C)c(Oc2cccc3cc(C(N)=O)sc23)n1` [IIP0943], the IC50 at PLK2 [2] is more than 1000 nM; on PLK3 [3] it was more than 1000 nM; on FAK kinase, 264 nM; in the data set on HCT116 cell line (Homo sapiens, HCT-116, CellTiter-Glo, mean ± standard deviation, n = 3 replicates, read-out: IC50 of cell proliferation inhibition, HCT116) it was 220 ± 3 nM; on PLK1 [4] (setting [9]), 5.1 nM; on PLK1 [4] (setting [10]), less than 1000 nM. The IC50 is 5.06 ± 1.64 nM on PLK1 [4] (setting [11]), 5.06 ± 1.96 nM at PLK1 [4] (setting [12]) and 5.06 ± 2.57 nM at PLK1 [4] (setting [13]). Further, on FAK kinase, the “selectivity for PLK1 over FAK” value was “over 50 fold”. Besides, the “inhibitory activity in HCT116 cell proliferation (in words)” value in the data set with HCT116 cell line (HCT116 cell line) is “submicromolar”. For the same compound, the “half-life compared to Onvansertib (in words)” value in data set [5] is given as “prolonged half-life”. Further, the “oral bioavailability compared to Onvansertib” value in [5] (ratio to Onvansertib) is “over two-fold”. Further, the “selectivity for PLK1 compared to other Plks (in words)” value at PLK1 [4] is “high and excellent”.
As for `COc1ccc(N2CCN(C)CC2)cc1Nc1ncc2ccn(-c3ccccc3-c3nc(C)no3)c2n1` [IIP0944], the IC50 on PLK1 [4] (setting [9]) was more than 10000 nM.
Regarding `COc1ccc(N2CCN(C)CC2)cc1Nc1ncc(C)c(Oc2ccccc2-n2ccnn2)n1` [IIP0945], the IC50 at PLK1 [4] (setting [9]) was 927 ± 129 nM; on PLK1 [4] (setting [10]) it was less than 1000 nM; at PLK1 [4] (setting [11]) it was 928 ± 122 nM; at PLK1 [4] (setting [12]), 928 ± 146 nM; at PLK1 [4] (setting [13]), 928 ± 192 nM.
For the compound `Cc1cc(Oc2ccc(C#N)cc2)nc(NCc2ccccc2)n1` [PubChem CID 1927680], at PLK1 [1], the pXC50 is recorded as 5.6.
For `CCS(=O)(=O)c1ccc2oc(Nc3ccc(C(C)C)cc3)nc2c1` [PubChem CID 2462953], the pXC50 on PLK1 [1] is 5.6.
Regarding `CC[C@@H]1C(=O)N(C)c2cnc(Nc3ccc(C(=O)N[C@H]4CC[C@H](N5CCN(CC6CC6)CC5)CC4)cc3OC)nc2N1C(C)C` [Volasertib], on PLK1 [6], the “enzymatic activity, in-house experiments” value is 0.30 nM. For the same compound, on PLK2 [7] (PLK1 vs PLK2 and PLK3), the “selectivity compared to Onvansertib (in words)” value is listed as “much worse selectivity”. Moreover, on PLK2 [7] (source not stated), the “activity against PLK2 (in words)” value is on record as “low nanomolar”. Also, the “activity against PLK3 (in words)” value at PLK3 [8] is listed as “low nanomolar”.

Values taken from article PMC11894060, “Accelerating discovery of bioactive ligands with pharmacophore-informed generative models” (Nature Communications, 2025).
